{"source": "patent US20180200257A1", "about": "“METHODS FOR THE TREATMENT OF INFLAMMATORY DISORDERS” (Galapagos NV, priority 2015, published 2018)", "tested_on": "Subjects With Active Crohn's Disease With Evidence of Mucosal Ulceration", "assay": "Study 3 - Aspartate Aminotransferase (AST) levels", "assay_type": "in vivo, human", "source_text": "Double-Blind, Randomized, Placebo-Controlled, Multi-Centre Study to Investigate the Efficacy and Safety of Compound 1 in Subjects With Active Crohn's Disease With Evidence of Mucosal Ulceration. This is a double-blind, randomized, placebo-controlled, multi-centre Phase 2 study to investigate the efficacy and safety of Compound 1 administered once daily for the treatment of active CD with evidence of mucosal ulceration. The pharmacokinetics (including a PK substudy) and pharmacodynamics of Compound 1 and metabolite in CD will also be characterised. A total of 180 eligible subjects will be randomized to receive Compound 1 or placebo in addition to their stable background treatment (eg, corticosteroids, aminosalicylates, or CD-related antibiotics). The study will consist of 2 parts, with total treatment duration of 20 weeks. Randomization in Part 1 will be stratified according the subject's previous anti-TNF exposure/response, CRP level at Screening, and oral corticosteroid use at visit Day −1. After the first 10 weeks of treatment in Part 1, patients will be re-randomized for Part 2 as shown in the diagram below and will be stratified according to the subject's clinical response, previous anti-TNF exposure/response, and oral corticosteroid use at visit Day -1. [table] AST levels determination is available at Quest Diagnostics, Clinical Trials, Quest House, 125-135 Staines Road, Hounslow, Middlesex, TW3 3JB, United Kingdom under Catalogue n#84450. For Study 3, the data are obtained at BARC Europe, 3B,Industrie Park, Zwijnaarde, B-9052 Ghent, Belgium. AST catalyzes the transamination of aspartate and 2-oxoglutarate, forming L-glutamate and oxalacetate. The oxalacetate is reduced to L-malate by malate dehydrogenase, whilst NADH is converted to NAD+, measured spectrophotometrically. Guidelines for the AST value have been issued by the association for Clinical Biochemistry and Laboratory Medicine, 130-132 Tooley Street LONDON SE1 2TU, united Kingdom, wherein the AST value should be below 34 U/l in Female and below 45 U/L in male. As disclosed in the respective study protocols for Study 1 or 2, at week 12, depending on the outcome of their treatment, the subjects may be continued in their initial treatment course, or reassigned to another treatment group in a randomized blinded fashion until week 24. Therefore, the number of subjects (N) for the period of either 12 weeks, or 24 weeks is provided to reflect this redistribution at week 12.", "key": {"[1]": {"conditions": "10 weeks results, 200 mg q.d., week 2"}, "[2]": {"conditions": "10 weeks results, 200 mg q.d., week 4"}, "[3]": {"conditions": "10 weeks results, 200 mg q.d., week 6"}, "[4]": {"conditions": "10 weeks results, 200 mg q.d., week 10"}, "[5]": {"conditions": "20 weeks results, 200 mg q.d. week 0 to 10, to 100 mg q.d. week 10 to 20, week 2"}, "[6]": {"conditions": "20 weeks results, 200 mg q.d. week 0 to 10, to 100 mg q.d. week 10 to 20, week 4"}, "[7]": {"conditions": "20 weeks results, 200 mg q.d. week 0 to 10, to 100 mg q.d. week 10 to 20, week 6"}, "[8]": {"conditions": "20 weeks results, 200 mg q.d. week 0 to 10, to 100 mg q.d. week 10 to 20, week 10"}, "[9]": {"conditions": "20 weeks results, 200 mg q.d. week 0 to 10, to 100 mg q.d. week 10 to 20, week 12"}, "[10]": {"conditions": "20 weeks results, 200 mg q.d. week 0 to 10, to 100 mg q.d. week 10 to 20, week 16"}, "[11]": {"conditions": "20 weeks results, 200 mg q.d. week 0 to 10, to 100 mg q.d. week 10 to 20, week 20"}, "[12]": {"conditions": "20 weeks results, 200 mg q.d. week 0 to 10, to placebo week 10 to 20, week 2"}, "[13]": {"conditions": "20 weeks results, 200 mg q.d. week 0 to 10, to placebo week 10 to 20, week 4"}, "[14]": {"conditions": "20 weeks results, 200 mg q.d. week 0 to 10, to placebo week 10 to 20, week 6"}, "[15]": {"conditions": "20 weeks results, 200 mg q.d. week 0 to 10, to placebo week 10 to 20, week 10"}, "[16]": {"conditions": "20 weeks results, 200 mg q.d. week 0 to 10, to placebo week 10 to 20, week 12"}, "[17]": {"conditions": "20 weeks results, 200 mg q.d. week 0 to 10, to placebo week 10 to 20, week 16"}, "[18]": {"conditions": "20 weeks results, 200 mg q.d. week 0 to 10, to placebo week 10 to 20, week 20"}, "[19]": {"conditions": "20 weeks results, continued 200 mg q.d., week 2"}, "[20]": {"conditions": "20 weeks results, continued 200 mg q.d., week 4"}, "[21]": {"conditions": "20 weeks results, continued 200 mg q.d., week 6"}, "[22]": {"conditions": "20 weeks results, continued 200 mg q.d., week 10"}, "[23]": {"conditions": "20 weeks results, continued 200 mg q.d., week 12"}, "[24]": {"conditions": "20 weeks results, continued 200 mg q.d., week 16"}, "[25]": {"conditions": "20 weeks results, continued 200 mg q.d., week 20"}, "[26]": {"conditions": "20 weeks results, placebo week 0 to 10, to 100 mg q.d. week 10 to 20, week 12"}, "[27]": {"conditions": "20 weeks results, placebo week 0 to 10, to 100 mg q.d. week 10 to 20, week 16"}, "[28]": {"conditions": "20 weeks results, placebo week 0 to 10, to 100 mg q.d. week 10 to 20, week 20"}}, "data": [{"smiles": "O=C(Nc1nc2cccc(-c3ccc(CN4CCS(=O)(=O)CC4)cc3)n2n1)C1CC1", "note": "[Compound 1, cyclopropanecarboxylic acid {5-[4-(1,1-dioxo-thiomorpholin-4-ylmethyl)-phenyl]-[1,2,4]triazolo[1,5-a]pyridin-2-yl}-amide]", "values": [{"measurement": "Study 3 - AST Mean CFB", "setting": "[1]", "value": 3.0, "unit": "IU/L"}, {"measurement": "Study 3 - AST Mean percentage CFB", "setting": "[1]", "value": 20.1, "unit": "%"}, {"measurement": "Study 3 - AST Mean CFB", "setting": "[2]", "value": 1.5, "unit": "IU/L"}, {"measurement": "Study 3 - AST Mean percentage CFB", "setting": "[2]", "value": 13.4, "unit": "%"}, {"measurement": "Study 3 - AST Mean CFB", "setting": "[3]", "value": 1.3, "unit": "IU/L"}, {"measurement": "Study 3 - AST Mean percentage CFB", "setting": "[3]", "value": 12.0, "unit": "%"}, {"measurement": "Study 3 - AST Mean CFB", "setting": "[4]", "value": 5.4, "unit": "IU/L"}, {"measurement": "Study 3 - AST Mean percentage CFB", "setting": "[4]", "value": 38.7, "unit": "%"}, {"measurement": "Study 3 - AST Mean CFB", "setting": "[5]", "value": 1.50, "unit": "IU/L"}, {"measurement": "Study 3 - AST Mean percentage CFB", "setting": "[5]", "value": 11.88, "unit": "%"}, {"measurement": "Study 3 - AST Mean CFB", "setting": "[6]", "value": 3.28, "unit": "IU/L"}, {"measurement": "Study 3 - AST Mean percentage CFB", "setting": "[6]", "value": 19.48, "unit": "%"}, {"measurement": "Study 3 - AST Mean CFB", "setting": "[7]", "value": 1.40, "unit": "IU/L"}, {"measurement": "Study 3 - AST Mean percentage CFB", "setting": "[7]", "value": 10.05, "unit": "%"}, {"measurement": "Study 3 - AST Mean CFB", "setting": "[8]", "value": 3.90, "unit": "IU/L"}, {"measurement": "Study 3 - AST Mean percentage CFB", "setting": "[8]", "value": 23.93, "unit": "%"}, {"measurement": "Study 3 - AST Mean CFB", "setting": "[9]", "value": 1.13, "unit": "IU/L"}, {"measurement": "Study 3 - AST Mean percentage CFB", "setting": "[9]", "value": 10.30, "unit": "%"}, {"measurement": "Study 3 - AST Mean CFB", "setting": "[10]", "value": 2.82, "unit": "IU/L"}, {"measurement": "Study 3 - AST Mean percentage CFB", "setting": "[10]", "value": 20.91, "unit": "%"}, {"measurement": "Study 3 - AST Mean CFB", "setting": "[11]", "value": 8.15, "unit": "IU/L"}, {"measurement": "Study 3 - AST Mean percentage CFB", "setting": "[11]", "value": 50.50, "unit": "%"}, {"measurement": "Study 3 - AST Mean CFB", "setting": "[12]", "value": 0.96, "unit": "IU/L"}, {"measurement": "Study 3 - AST Mean percentage CFB", "setting": "[12]", "value": 8.86, "unit": "%"}, {"measurement": "Study 3 - AST Mean CFB", "setting": "[13]", "value": 1.96, "unit": "IU/L"}, {"measurement": "Study 3 - AST Mean percentage CFB", "setting": "[13]", "value": 13.24, "unit": "%"}, {"measurement": "Study 3 - AST Mean CFB", "setting": "[14]", "value": 1.87, "unit": "IU/L"}, {"measurement": "Study 3 - AST Mean percentage CFB", "setting": "[14]", "value": 12.17, "unit": "%"}, {"measurement": "Study 3 - AST Mean CFB", "setting": "[15]", "value": 7.17, "unit": "IU/L"}, {"measurement": "Study 3 - AST Mean percentage CFB", "setting": "[15]", "value": 45.50, "unit": "%"}, {"measurement": "Study 3 - AST Mean CFB", "setting": "[16]", "value": 2.87, "unit": "IU/L"}, {"measurement": "Study 3 - AST Mean percentage CFB", "setting": "[16]", "value": 14.82, "unit": "%"}, {"measurement": "Study 3 - AST Mean CFB", "setting": "[17]", "value": 2.62, "unit": "IU/L"}, {"measurement": "Study 3 - AST Mean percentage CFB", "setting": "[17]", "value": 16.62, "unit": "%"}, {"measurement": "Study 3 - AST Mean CFB", "setting": "[18]", "value": 3.14, "unit": "IU/L"}, {"measurement": "Study 3 - AST Mean percentage CFB", "setting": "[18]", "value": 21.09, "unit": "%"}, {"measurement": "Study 3 - AST Mean CFB", "setting": "[19]", "value": 4.24, "unit": "IU/L"}, {"measurement": "Study 3 - AST Mean percentage CFB", "setting": "[19]", "value": 26.67, "unit": "%"}, {"measurement": "Study 3 - AST Mean CFB", "setting": "[20]", "value": 0.73, "unit": "IU/L"}, {"measurement": "Study 3 - AST Mean percentage CFB", "setting": "[20]", "value": 11.03, "unit": "%"}, {"measurement": "Study 3 - AST Mean CFB", "setting": "[21]", "value": 1.12, "unit": "IU/L"}, {"measurement": "Study 3 - AST Mean percentage CFB", "setting": "[21]", "value": 12.72, "unit": "%"}, {"measurement": "Study 3 - AST Mean CFB", "setting": "[22]", "value": 5.61, "unit": "IU/L"}, {"measurement": "Study 3 - AST Mean percentage CFB", "setting": "[22]", "value": 43.70, "unit": "%"}, {"measurement": "Study 3 - AST Mean CFB", "setting": "[23]", "value": 1.64, "unit": "IU/L"}, {"measurement": "Study 3 - AST Mean percentage CFB", "setting": "[23]", "value": 18.27, "unit": "%"}, {"measurement": "Study 3 - AST Mean CFB", "setting": "[24]", "value": 3.78, "unit": "IU/L"}, {"measurement": "Study 3 - AST Mean percentage CFB", "setting": "[24]", "value": 32.98, "unit": "%"}, {"measurement": "Study 3 - AST Mean CFB", "setting": "[25]", "value": 1.53, "unit": "IU/L"}, {"measurement": "Study 3 - AST Mean percentage CFB", "setting": "[25]", "value": 19.45, "unit": "%"}, {"measurement": "Study 3 - AST Mean CFB", "setting": "[26]", "value": 1.64, "unit": "IU/L"}, {"measurement": "Study 3 - AST Mean percentage CFB", "setting": "[26]", "value": 16.84, "unit": "%"}, {"measurement": "Study 3 - AST Mean CFB", "setting": "[27]", "value": 0.68, "unit": "IU/L"}, {"measurement": "Study 3 - AST Mean percentage CFB", "setting": "[27]", "value": 10.89, "unit": "%"}, {"measurement": "Study 3 - AST Mean CFB", "setting": "[28]", "value": 1.10, "unit": "IU/L"}, {"measurement": "Study 3 - AST Mean percentage CFB", "setting": "[28]", "value": 16.93, "unit": "%"}]}]}
